Results published in ChEMBL document CHEMBL4507278 (2021).

What was measured:
[1] = tested on: Tyrosine-protein kinase ABL1 (Homo sapiens), P00519 [H396P]; details: Compound concentration 1000.0 nM
[2] = tested on: Tyrosine-protein kinase ABL1 (Homo sapiens), P00519 [H396P]; details: Compound concentration 1000.0 nM; remark: listed apart in the source
[3] = tested on: Tyrosine-protein kinase ABL1 (Homo sapiens), P00519 [Q252H]; details: Compound concentration 1000.0 nM
[4] = target: Atypical kinase COQ8A, mitochondrial (Homo sapiens) (UniProt Q8NI60); details: Compound concentration 1000.0 nM
Sequence of Atypical kinase COQ8A, mitochondrial (Homo sapiens) (Q8NI60 163-647 limits assumed): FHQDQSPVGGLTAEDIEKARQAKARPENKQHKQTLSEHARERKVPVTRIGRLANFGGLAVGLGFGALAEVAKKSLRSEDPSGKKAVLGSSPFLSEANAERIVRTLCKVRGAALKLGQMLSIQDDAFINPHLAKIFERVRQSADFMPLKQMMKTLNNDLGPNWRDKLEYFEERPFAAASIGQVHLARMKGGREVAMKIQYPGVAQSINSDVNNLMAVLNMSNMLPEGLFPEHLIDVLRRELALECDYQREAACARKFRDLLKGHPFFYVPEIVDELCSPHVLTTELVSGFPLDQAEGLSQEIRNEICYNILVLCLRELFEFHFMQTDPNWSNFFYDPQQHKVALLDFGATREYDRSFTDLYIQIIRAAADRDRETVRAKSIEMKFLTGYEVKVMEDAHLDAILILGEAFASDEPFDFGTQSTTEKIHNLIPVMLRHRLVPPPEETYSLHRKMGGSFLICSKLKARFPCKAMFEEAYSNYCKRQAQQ

[5] = tested on: ALK tyrosine kinase receptor (Homo sapiens), Q9UM73 [L1196M]; details: Compound concentration 1000.0 nM
[6] = target: Aurora kinase B (Homo sapiens) (UniProt Q96GD4); details: Compound concentration 1000.0 nM
Sequence of Aurora kinase B (Homo sapiens) (Q96GD4 whole entry): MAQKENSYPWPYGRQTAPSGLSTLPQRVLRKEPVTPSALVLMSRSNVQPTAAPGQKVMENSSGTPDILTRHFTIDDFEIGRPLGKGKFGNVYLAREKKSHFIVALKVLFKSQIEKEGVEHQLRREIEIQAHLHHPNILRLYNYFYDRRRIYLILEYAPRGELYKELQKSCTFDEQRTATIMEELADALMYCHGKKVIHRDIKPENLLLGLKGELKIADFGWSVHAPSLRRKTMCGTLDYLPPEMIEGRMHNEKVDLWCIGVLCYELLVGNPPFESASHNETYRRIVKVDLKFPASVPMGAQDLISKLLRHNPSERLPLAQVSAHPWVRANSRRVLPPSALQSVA

[7] = target: Aurora kinase C (Homo sapiens) (UniProt Q9UQB9); details: Compound concentration 1000.0 nM
Sequence of Aurora kinase C (Homo sapiens) (Q9UQB9 whole entry): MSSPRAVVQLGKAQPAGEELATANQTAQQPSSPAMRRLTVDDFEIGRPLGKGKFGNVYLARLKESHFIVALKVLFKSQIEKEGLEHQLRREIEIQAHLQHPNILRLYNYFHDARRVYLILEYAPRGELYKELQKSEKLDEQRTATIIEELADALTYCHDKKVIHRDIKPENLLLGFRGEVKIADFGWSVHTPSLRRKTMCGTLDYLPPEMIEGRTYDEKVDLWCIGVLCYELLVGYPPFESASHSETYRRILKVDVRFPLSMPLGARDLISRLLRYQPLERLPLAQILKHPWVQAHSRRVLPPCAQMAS

[8] = target: Calcium/calmodulin-dependent protein kinase type 1G (Homo sapiens) (UniProt Q96NX5); details: Compound concentration 1000.0 nM
[9] = target: Calcium/calmodulin-dependent protein kinase type II subunit delta (Homo sapiens) (UniProt Q13557); details: Compound concentration 1000.0 nM
[10] = target: Cyclin-dependent kinase 13 (Homo sapiens) (UniProt Q14004); details: Compound concentration 1000.0 nM
[11] = target: Cyclin-dependent kinase-like 3 (Homo sapiens) (UniProt Q8IVW4); details: Compound concentration 1000.0 nM
[12] = target: Dual specificity protein kinase CLK1 (Homo sapiens) (UniProt P49759); details: Compound concentration 1000.0 nM
[13] = target: Mitogen-activated protein kinase kinase kinase 12 (Homo sapiens) (UniProt Q12852); details: Compound concentration 1000.0 nM
Sequence of Mitogen-activated protein kinase kinase kinase 12 (Homo sapiens) (Q12852 whole entry): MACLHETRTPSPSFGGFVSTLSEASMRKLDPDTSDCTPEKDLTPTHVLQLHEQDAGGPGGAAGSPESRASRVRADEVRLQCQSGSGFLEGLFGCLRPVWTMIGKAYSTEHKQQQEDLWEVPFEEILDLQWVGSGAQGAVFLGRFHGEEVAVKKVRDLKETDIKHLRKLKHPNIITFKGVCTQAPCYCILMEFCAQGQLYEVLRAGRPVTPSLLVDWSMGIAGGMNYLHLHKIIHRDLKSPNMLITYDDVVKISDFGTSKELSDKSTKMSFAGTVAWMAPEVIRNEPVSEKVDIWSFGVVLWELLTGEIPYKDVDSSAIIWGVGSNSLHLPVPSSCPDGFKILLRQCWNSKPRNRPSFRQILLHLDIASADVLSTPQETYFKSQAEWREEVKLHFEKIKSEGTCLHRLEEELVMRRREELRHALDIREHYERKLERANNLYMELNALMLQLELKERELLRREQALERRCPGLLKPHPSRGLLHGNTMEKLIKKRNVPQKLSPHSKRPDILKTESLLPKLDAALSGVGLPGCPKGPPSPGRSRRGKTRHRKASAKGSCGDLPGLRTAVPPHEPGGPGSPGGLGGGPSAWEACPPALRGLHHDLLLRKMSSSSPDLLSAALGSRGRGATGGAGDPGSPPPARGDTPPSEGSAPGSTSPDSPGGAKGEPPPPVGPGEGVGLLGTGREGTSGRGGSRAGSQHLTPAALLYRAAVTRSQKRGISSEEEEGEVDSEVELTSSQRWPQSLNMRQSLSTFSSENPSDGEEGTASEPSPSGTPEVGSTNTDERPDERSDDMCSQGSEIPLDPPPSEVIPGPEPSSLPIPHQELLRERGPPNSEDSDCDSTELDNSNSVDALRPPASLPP

[14] = target: Eukaryotic translation initiation factor 2-alpha kinase 1 (Homo sapiens) (UniProt Q9BQI3); details: Compound concentration 1000.0 nM
[15] = target: Ephrin type-A receptor 6 (Homo sapiens) (UniProt Q9UF33); details: Compound concentration 1000.0 nM
[16] = target: Fibroblast growth factor receptor 1 (Homo sapiens) (UniProt P11362); details: Compound concentration 1000.0 nM
[17] = tested on: Receptor-type tyrosine-protein kinase FLT3 (Homo sapiens), P36888 [R834Q]; details: Compound concentration 1000.0 nM
[18] = target: Rhodopsin kinase GRK1 (Homo sapiens) (UniProt Q15835); details: Compound concentration 1000.0 nM
[19] = target: Insulin receptor (Homo sapiens) (UniProt P06213); details: Compound concentration 1000.0 nM
Sequence of Insulin receptor (Homo sapiens) (P06213 28-758 limits assumed): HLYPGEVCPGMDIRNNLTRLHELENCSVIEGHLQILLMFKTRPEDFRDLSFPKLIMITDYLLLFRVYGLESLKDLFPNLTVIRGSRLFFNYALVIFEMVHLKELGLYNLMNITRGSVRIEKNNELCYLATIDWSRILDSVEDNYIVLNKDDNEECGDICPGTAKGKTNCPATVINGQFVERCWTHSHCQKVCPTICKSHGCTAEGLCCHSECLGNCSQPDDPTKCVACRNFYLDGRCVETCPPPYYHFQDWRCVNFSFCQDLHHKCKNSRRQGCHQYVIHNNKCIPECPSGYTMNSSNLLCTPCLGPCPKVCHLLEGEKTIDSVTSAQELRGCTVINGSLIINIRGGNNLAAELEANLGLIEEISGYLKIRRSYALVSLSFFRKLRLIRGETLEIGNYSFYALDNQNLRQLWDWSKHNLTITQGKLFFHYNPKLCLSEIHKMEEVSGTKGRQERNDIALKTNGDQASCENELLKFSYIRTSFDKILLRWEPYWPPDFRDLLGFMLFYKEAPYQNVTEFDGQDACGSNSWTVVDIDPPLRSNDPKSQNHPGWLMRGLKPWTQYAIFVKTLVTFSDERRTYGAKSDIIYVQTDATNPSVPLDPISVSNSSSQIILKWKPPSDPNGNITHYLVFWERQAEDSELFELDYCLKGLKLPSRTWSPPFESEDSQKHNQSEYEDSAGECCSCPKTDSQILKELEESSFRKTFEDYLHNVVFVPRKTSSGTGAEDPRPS
Sequence of Insulin receptor (Homo sapiens) (P06213 763-1382 limits assumed): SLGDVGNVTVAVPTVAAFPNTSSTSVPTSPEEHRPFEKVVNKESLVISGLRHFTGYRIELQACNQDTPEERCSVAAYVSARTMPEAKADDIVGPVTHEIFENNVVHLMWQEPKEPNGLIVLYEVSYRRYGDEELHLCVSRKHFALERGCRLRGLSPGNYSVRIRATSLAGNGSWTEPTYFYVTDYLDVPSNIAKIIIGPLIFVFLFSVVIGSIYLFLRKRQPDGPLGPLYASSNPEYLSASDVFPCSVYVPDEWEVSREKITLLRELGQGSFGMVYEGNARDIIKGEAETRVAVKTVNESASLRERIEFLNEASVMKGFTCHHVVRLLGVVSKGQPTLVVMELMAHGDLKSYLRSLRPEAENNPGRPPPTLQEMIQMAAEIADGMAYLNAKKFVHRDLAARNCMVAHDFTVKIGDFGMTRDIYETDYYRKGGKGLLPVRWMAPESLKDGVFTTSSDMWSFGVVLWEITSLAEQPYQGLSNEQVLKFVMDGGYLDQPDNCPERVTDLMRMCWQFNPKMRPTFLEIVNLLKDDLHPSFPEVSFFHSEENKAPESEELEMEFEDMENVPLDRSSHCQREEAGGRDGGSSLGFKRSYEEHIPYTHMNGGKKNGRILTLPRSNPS

[20] = target: Tyrosine-protein kinase JAK1 (Homo sapiens) (UniProt P23458); details: Compound concentration 1000.0 nM
[21] = tested on: Mast/stem cell growth factor receptor Kit (Homo sapiens), P10721 [D816V]; details: Compound concentration 1000.0 nM
[22] = target: Tyrosine-protein kinase Lck (Homo sapiens) (UniProt P06239); details: Compound concentration 1000.0 nM
[23] = target: Mitogen-activated protein kinase kinase kinase 13 (Homo sapiens) (UniProt O43283); details: Compound concentration 1000.0 nM
[24] = target: Mitogen-activated protein kinase kinase kinase 15 (Homo sapiens) (UniProt Q6ZN16); details: Compound concentration 1000.0 nM
[25] = target: MAP kinase-activated protein kinase 5 (Homo sapiens) (UniProt Q8IW41); details: Compound concentration 1000.0 nM
Sequence of MAP kinase-activated protein kinase 5 (Homo sapiens) (Q8IW41 whole entry): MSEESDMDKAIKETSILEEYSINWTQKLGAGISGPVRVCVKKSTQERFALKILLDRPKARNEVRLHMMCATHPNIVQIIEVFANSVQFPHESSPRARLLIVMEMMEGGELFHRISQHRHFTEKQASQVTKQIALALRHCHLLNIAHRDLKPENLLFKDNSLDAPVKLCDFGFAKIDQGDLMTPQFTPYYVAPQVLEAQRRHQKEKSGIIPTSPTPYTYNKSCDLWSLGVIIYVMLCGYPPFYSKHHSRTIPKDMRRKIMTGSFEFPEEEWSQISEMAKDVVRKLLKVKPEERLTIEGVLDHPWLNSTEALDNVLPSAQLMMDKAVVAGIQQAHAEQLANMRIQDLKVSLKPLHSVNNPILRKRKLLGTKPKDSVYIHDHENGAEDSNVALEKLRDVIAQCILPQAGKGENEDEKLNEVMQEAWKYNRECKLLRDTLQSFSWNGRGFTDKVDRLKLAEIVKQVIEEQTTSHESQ

[26] = tested on: Hepatocyte growth factor receptor (Homo sapiens), P08581 [M1250T]; details: Compound concentration 1000.0 nM
[27] = target: Mitogen-activated protein kinase kinase kinase 9 (Homo sapiens) (UniProt P80192); details: Compound concentration 1000.0 nM
[28] = target: Myosin-IIIa (Homo sapiens) (UniProt Q8NEV4); details: Compound concentration 1000.0 nM
[29] = target: Cyclin-dependent kinase 15 (Homo sapiens) (UniProt Q96Q40); details: Compound concentration 1000.0 nM
[30] = tested on: Phosphatidylinositol 4,5-bisphosphate 3-kinase catalytic subunit alpha isoform (Homo sapiens), P42336 [E542K]; details: Compound concentration 1000.0 nM
[31] = target: Phosphatidylinositol 4,5-bisphosphate 3-kinase catalytic subunit delta isoform (Homo sapiens) (UniProt O00329); details: Compound concentration 1000.0 nM
[32] = target: Serine/threonine-protein kinase N2 (Homo sapiens) (UniProt Q16513); details: Compound concentration 1000.0 nM
Sequence of Serine/threonine-protein kinase N2 (Homo sapiens) (Q16513 whole entry, looked up): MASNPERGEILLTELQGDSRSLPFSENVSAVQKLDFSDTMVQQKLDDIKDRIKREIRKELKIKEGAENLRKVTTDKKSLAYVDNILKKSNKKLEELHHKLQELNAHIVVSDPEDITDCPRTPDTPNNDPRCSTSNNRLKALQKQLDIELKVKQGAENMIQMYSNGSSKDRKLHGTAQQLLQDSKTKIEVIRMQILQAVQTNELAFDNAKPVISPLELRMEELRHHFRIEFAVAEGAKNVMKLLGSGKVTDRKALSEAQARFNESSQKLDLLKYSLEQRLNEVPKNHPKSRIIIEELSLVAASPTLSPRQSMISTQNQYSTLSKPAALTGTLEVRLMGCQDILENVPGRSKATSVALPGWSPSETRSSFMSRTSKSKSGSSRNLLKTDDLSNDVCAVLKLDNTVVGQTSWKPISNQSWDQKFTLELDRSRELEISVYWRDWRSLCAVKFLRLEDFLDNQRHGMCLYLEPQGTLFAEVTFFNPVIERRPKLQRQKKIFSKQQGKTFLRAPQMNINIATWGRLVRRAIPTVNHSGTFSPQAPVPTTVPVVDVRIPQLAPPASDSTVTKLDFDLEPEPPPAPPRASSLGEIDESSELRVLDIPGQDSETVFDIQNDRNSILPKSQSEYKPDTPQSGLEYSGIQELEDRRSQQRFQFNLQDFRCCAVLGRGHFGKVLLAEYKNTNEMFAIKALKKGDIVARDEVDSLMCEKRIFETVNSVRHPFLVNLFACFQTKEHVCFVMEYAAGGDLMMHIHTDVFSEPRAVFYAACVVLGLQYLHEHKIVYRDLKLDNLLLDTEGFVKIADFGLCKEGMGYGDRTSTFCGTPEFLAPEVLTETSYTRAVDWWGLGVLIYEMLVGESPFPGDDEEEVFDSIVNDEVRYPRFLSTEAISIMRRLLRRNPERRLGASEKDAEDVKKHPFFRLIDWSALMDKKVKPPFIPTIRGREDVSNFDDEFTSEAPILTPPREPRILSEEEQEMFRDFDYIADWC

[33] = target: Serine/threonine-protein kinase PLK4 (Homo sapiens) (UniProt O00444); details: Compound concentration 1000.0 nM
[34] = target: Serine/threonine-protein kinase D2 (Homo sapiens) (UniProt Q9BZL6); details: Compound concentration 1000.0 nM
[35] = target: Interferon-induced, double-stranded RNA-activated protein kinase (Homo sapiens) (UniProt P19525); details: Compound concentration 1000.0 nM
[36] = target: Serine/threonine-protein kinase RIO2 (Homo sapiens) (UniProt Q9BVS4); details: Compound concentration 1000.0 nM
[37] = target: Serine/threonine-protein kinase RIO3 (Homo sapiens) (UniProt O14730); details: Compound concentration 1000.0 nM
[38] = target: Ribosomal protein S6 kinase alpha-6 (Homo sapiens) (UniProt Q9UK32); details: Compound concentration 1000.0 nM
[39] = target: Serine/threonine-protein kinase 33 (Homo sapiens) (UniProt Q9BYT3); details: Compound concentration 1000.0 nM
[40] = target: STE20/SPS1-related proline-alanine-rich protein kinase (Homo sapiens) (UniProt Q9UEW8); details: Compound concentration 1000.0 nM
[41] = target: 5-hydroxytryptamine receptor 7 (Homo sapiens) (UniProt P34969); details: Compound concentration 10.0 uM
[42] = target: D(1B) dopamine receptor (Homo sapiens) (UniProt P21918); details: Compound concentration 10.0 uM
[43] = target: Alpha-2B adrenergic receptor (Homo sapiens) (UniProt P18089); details: Compound concentration 10.0 uM
[44] = target: GABA-A receptor; anion channel (Rattus norvegicus) (UniProt O09028+P15431+P18506+P18508+P19969+P20236+P23574+P23576+P28471+P28473+P30191+P62813+P63079+P63138+Q91ZM7+Q9ES14); details: Compound concentration 10.0 uM

CS(=O)(=O)NCC[C@H](NC(=O)c1cncc2c1cnn2-c1ccc(F)cc1)c1ccnc(S(C)(=O)=O)c1 [BI 9307]
inactive: residual activity [1] 97% | residual activity [2] 100% | residual activity [3] 81% | residual activity [4] 95% | residual activity [5] 100% | residual activity [6] 100% | residual activity [7] 92% | residual activity [8] 100% | residual activity [9] 100% | residual activity [10] 100% | residual activity [11] 99% | residual activity [12] 93% | residual activity [13] 82% | residual activity [14] 100% | residual activity [15] 100% | residual activity [16] 87% | residual activity [17] 79% | residual activity [18] 100% | residual activity [19] 92% | residual activity [20] 96% | residual activity [21] 94% | residual activity [22] 100% | residual activity [23] 100% | residual activity [24] 100% | residual activity [25] 100% | residual activity [26] 88% | residual activity [27] 97% | residual activity [28] 93% | residual activity [29] 79% | residual activity [30] 66% | residual activity [31] 100% | residual activity [32] 100% | residual activity [33] 89% | residual activity [34] 94% | residual activity [35] 53% | residual activity [36] 100% | residual activity [37] 100% | residual activity [38] 100% | residual activity [39] 87% | residual activity [40] 80% | inhibition [41] 4.81% | inhibition [42] 36% | inhibition [43] -2.26% | inhibition [44] 10.4%

CS(=O)(=O)c1cc(C2(NC(=O)c3cncc4c3cnn4-c3ccc(F)cc3)CC2)ccn1 [BI 639667]
inactive: residual activity [1] 100% | residual activity [2] 100% | residual activity [3] 80% | residual activity [4] 100% | residual activity [5] 100% | residual activity [6] 88% | residual activity [7] 100% | residual activity [8] 100% | residual activity [9] 76% | residual activity [10] 100% | residual activity [11] 96% | residual activity [12] 98% | residual activity [13] 100% | residual activity [14] 73% | residual activity [15] 100% | residual activity [16] 95% | residual activity [17] 75% | residual activity [18] 87% | residual activity [19] 100% | residual activity [20] 96% | residual activity [21] 100% | residual activity [22] 100% | residual activity [23] 76% | residual activity [24] 67% | residual activity [25] 87% | residual activity [26] 82% | residual activity [27] 100% | residual activity [28] 85% | residual activity [29] 100% | residual activity [30] 80% | residual activity [31] 100% | residual activity [32] 100% | residual activity [33] 85% | residual activity [34] 97% | residual activity [35] 60% | residual activity [36] 94% | residual activity [37] 100% | residual activity [38] 64% | residual activity [39] 90% | residual activity [40] 58% | inhibition [41] 10.5% | inhibition [42] -0.37% | inhibition [43] 13.2% | inhibition [44] 3.75%
